Source: patent US5637583A, “Aminocyclohexylesters and uses thereof” (University of British Columbia, priority 1994, dated 1997)

Assays:
[1] = tested on: conscious rats subject to coronary artery occlusion; assay: Antiarrhythmic efficacy: incidence of cardiac arrhythmias in conscious rats subject to coronary artery occlusion; assay type: in vivo, rat; conditions: dose 5 micromoles/kg/min infusion; score 0-9 per Table 2; 30 min after occlusion
Method: Antiarrhythmic efficacy was assessed by investigating the effect of a compound on the incidence of cardiac arrhythmias in conscious rats subject to coronary artery occlusion. Rats weighing 200-300 gms were subjected to preparative surgery and assigned to groups in a random block design. In each case, the animal was anesthetized with halothane during surgical preparation. The left femoral artery was cannulated for measurement of mean arterial blood pressure and withdrawal of blood samples. The left femoral vein was also cannulated for injection of drugs. The thoracic cavity was opened and a polyethylene occluder loosely placed around the left anterior descending coronary artery. The thoracic cavity was then closed. ECG was recorded by insertion of electrodes placed along the anatomical axis of the heart. All cannulae and electrode leads were exteriorized in the mid scapular region. In random and double-blind manner, about 0.5 to 2 hours post-surgery, an infusion of vehicle, or the compound to be tested was given. After 15 minutes infusion, the occluder was pulled so as to produce coronary artery occlusion. ECG, arrhythmias, blood pressure, heart rate and mortality were monitored for 30 minutes after occlusion. Arrhythmias were recorded as ventricular tachycardia (VT) and ventricular fibrillation (VF) and scored according to Curtis, M. J. and Walker, M. J. A., Cardiovasc.
VPB=ventricular premature beats
VT=ventricular tachycardia
VF=ventricular fibrillation
Occlusion is associated with increases in R-wave height and "S-T" segment elevation; and an occluded zone (measured after death by cardiogreen dye perfusion) in the range of 25%-50% of total left-ventricular weight.

[2] = target: T1, cardiac sodium channel (Rattus norvegicus, UniProt P15389); assay: ECG parameters in anesthetized rats (RSh, PR, QRS; cardiac sodium channel blockade); assay type: in vivo; conditions: i.v. bolus, RSh
Method: Rats weighing 200-250 gms were used in this example. Animals were anesthetized with 60 mg/kg pentobarbitone i.p. The carotid artery and jugular vein were cannulated for measurement of blood pressure and drug injection, respectively. ECG was recorded by insertion of electrodes placed along the anatomical axis of the heart. All compounds were given as bolus injections.
Various ECG parameters were measured. The most sensitive of these for measuring sodium channel blockade is RSh (J. Pharmacology Methods 27:51-58 (1992)). Table 4 describes the results of the tests as ED25 (micromoles/kg) which are the doses required to produce a 25% increase in the parameter measured (ne=not estimated). The increases in P-R interval, QRS interval and RSh indicate cardiac sodium channel blockade while the increase in Q-T interval indicates ancillary cardiac potassium channel blockade which is the property of a type 1 a antiarrhythmic.

[3] = tested on: cardiac potassium channel; assay: ECG parameters in anesthetized rats (QT; ancillary cardiac potassium channel blockade); assay type: in vivo, rat; conditions: i.v. bolus, Q-T interval
Method: Various ECG parameters were measured. […] The increases in P-R interval, QRS interval and RSh indicate cardiac sodium channel blockade while the increase in Q-T interval indicates ancillary cardiac potassium channel blockade which is the property of a type 1 a antiarrhythmic.

[4] = target: T1, cardiac sodium channel; assay: Electrical stimulation of left ventricle in rats (iT, VFT; cardiac sodium channel blockade); assay type: in vivo; conditions: infusion rate for 25% increase from control; anesthetized rats
Method: Rats were prepared according to the preceding procedure. Two silver stimulating electrodes were inserted through the chest wall and implanted in the left ventricle. Square wave stimulation was used to determine threshold current for capture, ventricular fibrillation threshold current, and effective refractory period (Howard, P. G. and Walker, M. J. A., Proc. West. Pharmacol. Soc. 33:123-127 (1990)). Table 5 contains ED25 values for these indices of cardiac sodium channel blockade, where the ED25 is the infusion rate in micromoles/kg/minute of compound required to elicit a 25% increase from control. The increases in refractoriness indicate ancillary blockade of potassium channels. The threshold current for capture is represented by "iT". The fibrillation threshold current is represented by "VFT". The effective refracting period is represented by "ERP".

[5] = tested on: potassium channels; assay: Electrical stimulation of left ventricle in rats (ERP; ancillary blockade of potassium channels); assay type: in vivo, rat; conditions: infusion rate for 25% increase from control; anesthetized rats
Excerpt: Two silver stimulating electrodes were inserted through the chest wall and implanted in the left ventricle. Square wave stimulation was used to determine threshold current for capture, ventricular fibrillation threshold current, and effective refractory period (Howard, P. G. and Walker, M. J. A., Proc. West. Pharmacol. Soc. 33:123-127 (1990)). […] The threshold current for capture is represented by "iT". The fibrillation threshold current is represented by "VFT". The effective refracting period is represented by "ERP".

[6] = target: T1, cardiac sodium channel; assay: Whole cell voltage clamp tests, single isolated adult rat cardiac cells; assay type: cell-based; conditions: whole cell voltage clamp, isolated adult rat cardiac cells; read-out: EC50 (concentration required to produce a 50% reduction in sodium current)
Method: In order to directly measure cardiac sodium channel blockade, standard whole cell voltage clamp tests were carried out using single isolated adult rat cardiac cells. Results in the form of EC50 values, which are micromolar concentrations required to produce a 50% reduction in sodium current, are presented in Table 6.

[7] = tested on: phrenic nerve diaphragm; assay: Nerve conduction blockade in vitro, phrenic nerve diaphragm; conditions: Rattus norvegicus; phrenic nerve diaphragm, in vitro; read-out: concentration at which the twitch response from electrical stimulation is reduced to 50% of control value
Method: In order to establish the potency of the compounds to block nerve conduction, two in vitro assays were used. The first was the phrenic nerve diaphragm of the rat. […] Nerve blockade in these preparations is indicative of local anesthetic activity. Compounds were administered to the bath solution in increasing concentrations while the preparations were being stimulated with regular electrical impulses.

[8] = tested on: hypogastric nerve vas deferens; assay: Nerve conduction blockade in vitro, hypogastric nerve vas deferens; conditions: hypogastric nerve vas deferens, in vitro; read-out: concentration at which the twitch response from electrical stimulation is reduced to 50% of control value
Method: In order to establish the potency of the compounds to block nerve conduction, two in vitro assays were used. The first was the phrenic nerve diaphragm of the rat. The second was the hypogastric nerve vas deferens. Nerve blockade in these preparations is indicative of local anesthetic activity. Compounds were administered to the bath solution in increasing concentrations while the preparations were being stimulated with regular electrical impulses.

[9] = tested on: central nervous system of the rat; assay: Opioid-like effects during in vivo tests
Excerpt: This provides evidence that some of the compounds may have analgesic activity through activation of opioid receptors. Examination of members of this series of compounds by analgesic assays and binding studies show the presence of opioid binding and activity.

T1 sequence (P15389 whole entry): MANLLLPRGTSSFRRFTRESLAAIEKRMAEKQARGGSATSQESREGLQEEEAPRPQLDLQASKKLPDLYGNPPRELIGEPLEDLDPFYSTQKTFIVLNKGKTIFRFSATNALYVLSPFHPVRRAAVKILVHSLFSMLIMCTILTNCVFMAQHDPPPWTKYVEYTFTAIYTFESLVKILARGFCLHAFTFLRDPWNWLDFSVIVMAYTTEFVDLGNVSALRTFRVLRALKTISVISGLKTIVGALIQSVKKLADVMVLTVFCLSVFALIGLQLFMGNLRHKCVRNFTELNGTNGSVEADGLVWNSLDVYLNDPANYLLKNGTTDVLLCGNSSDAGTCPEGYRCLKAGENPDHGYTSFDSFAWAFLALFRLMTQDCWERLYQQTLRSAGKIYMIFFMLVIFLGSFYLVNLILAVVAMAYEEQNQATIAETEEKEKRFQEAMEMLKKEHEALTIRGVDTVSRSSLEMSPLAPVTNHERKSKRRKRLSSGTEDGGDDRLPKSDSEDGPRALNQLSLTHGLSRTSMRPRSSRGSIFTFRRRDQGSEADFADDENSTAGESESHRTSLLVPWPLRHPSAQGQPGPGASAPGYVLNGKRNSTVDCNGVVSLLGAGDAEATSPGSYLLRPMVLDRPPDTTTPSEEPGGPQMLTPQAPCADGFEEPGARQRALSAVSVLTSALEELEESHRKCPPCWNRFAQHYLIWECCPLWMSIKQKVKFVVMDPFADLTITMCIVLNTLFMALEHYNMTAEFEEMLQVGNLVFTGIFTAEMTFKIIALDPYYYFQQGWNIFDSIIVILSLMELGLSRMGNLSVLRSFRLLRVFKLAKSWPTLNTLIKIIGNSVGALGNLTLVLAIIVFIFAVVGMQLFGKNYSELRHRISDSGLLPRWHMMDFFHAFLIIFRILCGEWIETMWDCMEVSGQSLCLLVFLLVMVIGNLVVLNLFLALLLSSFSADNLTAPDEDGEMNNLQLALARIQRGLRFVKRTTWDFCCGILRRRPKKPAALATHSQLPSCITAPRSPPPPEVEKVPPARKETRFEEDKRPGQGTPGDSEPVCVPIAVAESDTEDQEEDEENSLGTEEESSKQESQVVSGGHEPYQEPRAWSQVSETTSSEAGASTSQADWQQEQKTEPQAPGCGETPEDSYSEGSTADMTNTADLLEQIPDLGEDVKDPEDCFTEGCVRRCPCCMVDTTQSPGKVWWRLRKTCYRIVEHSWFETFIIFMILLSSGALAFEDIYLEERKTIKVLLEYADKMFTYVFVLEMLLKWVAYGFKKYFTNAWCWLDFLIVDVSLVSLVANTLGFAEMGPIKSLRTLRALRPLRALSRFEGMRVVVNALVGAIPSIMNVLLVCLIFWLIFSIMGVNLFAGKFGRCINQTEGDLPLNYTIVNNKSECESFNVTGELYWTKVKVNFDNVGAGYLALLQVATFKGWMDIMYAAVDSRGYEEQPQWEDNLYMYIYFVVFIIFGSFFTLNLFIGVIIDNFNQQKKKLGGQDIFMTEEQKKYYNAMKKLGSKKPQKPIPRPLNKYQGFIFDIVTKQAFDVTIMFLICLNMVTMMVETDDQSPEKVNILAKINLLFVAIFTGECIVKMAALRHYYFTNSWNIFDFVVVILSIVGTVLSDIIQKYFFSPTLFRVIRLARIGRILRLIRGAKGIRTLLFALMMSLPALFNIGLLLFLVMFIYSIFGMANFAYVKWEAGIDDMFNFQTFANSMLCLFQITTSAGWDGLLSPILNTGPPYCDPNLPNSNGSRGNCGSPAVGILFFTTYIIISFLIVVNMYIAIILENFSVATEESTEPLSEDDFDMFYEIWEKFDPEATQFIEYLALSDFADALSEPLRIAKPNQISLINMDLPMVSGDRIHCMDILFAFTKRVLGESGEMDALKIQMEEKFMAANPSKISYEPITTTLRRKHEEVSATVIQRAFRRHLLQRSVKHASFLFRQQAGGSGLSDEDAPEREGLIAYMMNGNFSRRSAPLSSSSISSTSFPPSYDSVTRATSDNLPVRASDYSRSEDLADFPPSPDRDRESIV

For `Cl.O=C(Cc1csc2ccccc12)O[C@@H]1CCCC[C@H]1N1CCOCC1` (racemic) [Compound #6, (±)-trans-[2-(4-morpholinyl)cyclohexyl]benzo[b]thiophene-3-acetate monohydrochloride], the “AS (arrhythmia score)” value [1] was 1.8, the “ED25 RSh (dose required to produce a 25% increase)” value [2] was 100 µmol/kg and the “ED25 QT (dose required to produce a 25% increase)” value [3] was 79 µmol/kg. For the same compound, the “ED25 VFT (fibrillation threshold current)” value [4] was 9 µmol/kg/min, the “ED25 iT (threshold current for capture)” value [4] was 12 µmol/kg/min and the “ED25 ERP (effective refractory period)” value [5] was 7 µmol/kg/min. It also gave an EC50 [6] of 150 µM, an IC50 [7] of 30 µM and an IC50 [8] of 100 µM. The “opioid-like effects on the central nervous system” value [9] was “induced opioid-like effects on the central nervous system of the rat”.
